Laboratory results as given in PubChem BioAssay AID330 (DTP/NCI, 2004).
“And” between values parts separate entries of the source, which are not always exact repeats. Identical values can stand only once. Inconclusive results and toxic doses are left out.

System: P388 leukemia ip, CD2F1 mice, survival T/C
Experiment: NCI In Vivo Anticancer Drug Screen. Data for tumor model P388 Leukemia (intraperitoneal) in CD2F1 (CDF1) mice
Conditions: endpoint: median survival time, higher = longer survival
Procedure, shortened: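 Mice carrying the transplanted tumor received test compound or vehicle. Survival was recorded in each group, and the value is the treated-group measurement divided by that of the vehicle-treated control group.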

[1] = dose: 50.0 mg/kg/injection, schedule: Q01DX009 (ip), vehicle: saline with Tween-80
[2] = dose: 100.0 mg/kg/injection, schedule: Q01DX009 (ip), vehicle: saline with Tween-80
[3] = dose: 200.0 mg/kg/injection, schedule: Q01DX009 (ip), vehicle: saline with Tween-80
[4] = dose: 12.5 mg/kg/injection, schedule: Q01DX005 (ip), vehicle: Klucel (hydroxypropylcellulose) (HPC)
[5] = dose: 25.0 mg/kg/injection, schedule: Q01DX005 (ip), vehicle: Klucel (hydroxypropylcellulose) (HPC)
[6] = dose: 50.0 mg/kg/injection, schedule: Q01DX005 (ip), vehicle: Klucel (hydroxypropylcellulose) (HPC)
[7] = dose: 100.0 mg/kg/injection, schedule: Q01DX005 (ip), vehicle: Klucel (hydroxypropylcellulose) (HPC)
[8] = dose: 60.0 mg/kg/injection, schedule: Q01DX005 (ip), vehicle: saline with Tween-80
[9] = dose: 120.0 mg/kg/injection, schedule: Q01DX005 (ip), vehicle: saline with Tween-80
[10] = dose: 240.0 mg/kg/injection, schedule: Q01DX005 (ip), vehicle: saline with Tween-80

Nc1nn(-c2cccc(C(F)(F)F)c2)c2cccc[n+]12
T/C (dose: 12.5 mg/kg/injection, schedule: Q01DX009 (ip), vehicle: saline with Tween-80): 100 % of control
T/C (dose: 25.0 mg/kg/injection, schedule: Q01DX009 (ip), vehicle: saline with Tween-80): 105 % of control
T/C (dose: 25.0 mg/kg/injection, schedule: Q01DX009 (ip), vehicle: water): 111 % of control
T/C [1]: 100 % of control
T/C (dose: 50.0 mg/kg/injection, schedule: Q01DX009 (ip), vehicle: water): 106 % of control

CNCCSSCCN
T/C (dose: 25.0 mg/kg/injection, schedule: Q04DX003 (ip), vehicle: saline): 100 % of control
T/C (dose: 50.0 mg/kg/injection, schedule: Q04DX003 (ip), vehicle: saline): 90 % of control
T/C (dose: 100.0 mg/kg/injection, schedule: Q04DX003 (ip), vehicle: saline): 86 % of control

N/C=C1\Cc2ccccc2C1=O
T/C (dose: 50.0 mg/kg/injection, schedule: Q01DX009 (ip), vehicle: suspension in saline): 95 % of control
T/C (dose: 100.0 mg/kg/injection, schedule: Q01DX009 (ip), vehicle: suspension in saline): 98 % of control
T/C (dose: 200.0 mg/kg/injection, schedule: Q01DX009 (ip), vehicle: suspension in saline): 104 % of control

CC1(C)NNC(=S)NC1=O
T/C (dose: 50.0 mg/kg/injection, schedule: Q01DX009 (ip), vehicle: Klucel (hydroxypropylcellulose) (HPC)): 99 % of control
T/C [1]: 100 % of control
T/C (dose: 100.0 mg/kg/injection, schedule: Q01DX009 (ip), vehicle: Klucel (hydroxypropylcellulose) (HPC)): 97 % of control
T/C [2]: 113 % of control
T/C (dose: 200.0 mg/kg/injection, schedule: Q01DX009 (ip), vehicle: Klucel (hydroxypropylcellulose) (HPC)): 94 % of control
T/C [3]: 97 % of control

CC(=O)O.CC(C)=CCC(OC(=O)C=C(C)C)c1cc(O)c2c(O)ccc(O)c2c1O.[Cr] (configuration not stated)
T/C (dose: 100.0 mg/kg/injection, schedule: Q01DX001 (ip), vehicle: saline with Tween-80): 93 % of control
T/C (dose: 200.0 mg/kg/injection, schedule: Q01DX001 (ip), vehicle: saline with Tween-80): 93 % of control
T/C (dose: 400.0 mg/kg/injection, schedule: Q01DX001 (ip), vehicle: saline with Tween-80): 94 % of control

N[C@@H](C(=O)O)[C@@H]1C=CCCC1
T/C (dose: 100.0 mg/kg/injection, schedule: Q04DX002 (ip), vehicle: saline): 101 % of control
T/C (dose: 200.0 mg/kg/injection, schedule: Q04DX002 (ip), vehicle: saline): 94 % of control

COc1ccc(/C=C/c2ccc3ccccc3[n+]2C)cc1Br
T/C [4]: 113 % of control
T/C [5]: 113 % of control
T/C [6]: 113 % of control and 119 % of control

Cc1nc(N)[nH]c(=O)c1CCCNc1ccc(C(=O)NC(CCC(=O)O)C(=O)O)cc1 (configuration not stated)
T/C [6]: 100 % of control
T/C [7]: 97 % of control
T/C (dose: 200.0 mg/kg/injection, schedule: Q01DX005 (ip), vehicle: Klucel (hydroxypropylcellulose) (HPC)): 100 % of control

BrC1C2CC/C=C\CCC12 (configuration not stated)
T/C [8]: 100 % of control
T/C [9]: 104 % of control
T/C [10]: 104 % of control

O=[N+]([O-])c1ccccc1Sc1cccc(Sc2ccccc2[N+](=O)[O-])n1
T/C [8]: 100 % of control
T/C [9]: 105 % of control
T/C [10]: 102 % of control

CC(=O)NN=C(c1ccccc1)c1ccccc1
T/C [1]: 100 % of control
T/C [2]: 100 % of control
T/C [3]: 100 % of control

O=C1c2ccccc2C(=O)c2c(NC(=O)C(F)(F)F)cccc21
T/C [4]: 96 % of control
T/C [5]: 93 % of control
T/C [6]: 87 % of control and 89 % of control

CCN(CC)CCSSCCN(CC)CC.[Cl][Mn][Cl]
T/C [6]: 114 % of control
T/C [7]: 117 % of control

CC(C)(C)C#CP(C#CC(C)(C)C)C#CC(C)(C)C
T/C (dose: 12.5 mg/kg/injection, schedule: Q04DX003 (ip), vehicle: Klucel (hydroxypropylcellulose) (HPC)): 108 % of control
T/C (dose: 25.0 mg/kg/injection, schedule: Q04DX003 (ip), vehicle: Klucel (hydroxypropylcellulose) (HPC)): 106 % of control
T/C (dose: 50.0 mg/kg/injection, schedule: Q04DX003 (ip), vehicle: Klucel (hydroxypropylcellulose) (HPC)): 111 % of control

O=NNc1ccc(Sc2ccccc2)cn1
T/C (dose: 6.25 mg/kg/injection, schedule: Q01DX009 (ip), vehicle: saline): 153 % of control
T/C (dose: 12.5 mg/kg/injection, schedule: Q01DX009 (ip), vehicle: saline): 88 % of control and 90 % of control
